Results reported in patent US11993599B2, “Therapeutic compounds” (Genentech, Inc., priority 2021, dated 2024).

Legend:
BRG1 = biological target: T1, BRG1 (Homo sapiens, UniProt P51532); assay: Immunofluorescence assay for BRG1 degradation in SW1573 cells; format: cell-based; conditions: 20 hours incubation; for DC50: immunofluorescence mean nuclear signal, read-out: BRG1 IF Degradation IC50; for Dmax: SW1573, 20 h, normalized to a known degrader control, read-out: BRG1 IF Degradation Sinf (%)
T1 construct: either BRM primary antibody (Cell signaling Cat #11966) or BRG primary antibody (Abcam, ab 110641); endogenous in cells; host or cells: SW1573
T1 sequence (P51532 whole entry): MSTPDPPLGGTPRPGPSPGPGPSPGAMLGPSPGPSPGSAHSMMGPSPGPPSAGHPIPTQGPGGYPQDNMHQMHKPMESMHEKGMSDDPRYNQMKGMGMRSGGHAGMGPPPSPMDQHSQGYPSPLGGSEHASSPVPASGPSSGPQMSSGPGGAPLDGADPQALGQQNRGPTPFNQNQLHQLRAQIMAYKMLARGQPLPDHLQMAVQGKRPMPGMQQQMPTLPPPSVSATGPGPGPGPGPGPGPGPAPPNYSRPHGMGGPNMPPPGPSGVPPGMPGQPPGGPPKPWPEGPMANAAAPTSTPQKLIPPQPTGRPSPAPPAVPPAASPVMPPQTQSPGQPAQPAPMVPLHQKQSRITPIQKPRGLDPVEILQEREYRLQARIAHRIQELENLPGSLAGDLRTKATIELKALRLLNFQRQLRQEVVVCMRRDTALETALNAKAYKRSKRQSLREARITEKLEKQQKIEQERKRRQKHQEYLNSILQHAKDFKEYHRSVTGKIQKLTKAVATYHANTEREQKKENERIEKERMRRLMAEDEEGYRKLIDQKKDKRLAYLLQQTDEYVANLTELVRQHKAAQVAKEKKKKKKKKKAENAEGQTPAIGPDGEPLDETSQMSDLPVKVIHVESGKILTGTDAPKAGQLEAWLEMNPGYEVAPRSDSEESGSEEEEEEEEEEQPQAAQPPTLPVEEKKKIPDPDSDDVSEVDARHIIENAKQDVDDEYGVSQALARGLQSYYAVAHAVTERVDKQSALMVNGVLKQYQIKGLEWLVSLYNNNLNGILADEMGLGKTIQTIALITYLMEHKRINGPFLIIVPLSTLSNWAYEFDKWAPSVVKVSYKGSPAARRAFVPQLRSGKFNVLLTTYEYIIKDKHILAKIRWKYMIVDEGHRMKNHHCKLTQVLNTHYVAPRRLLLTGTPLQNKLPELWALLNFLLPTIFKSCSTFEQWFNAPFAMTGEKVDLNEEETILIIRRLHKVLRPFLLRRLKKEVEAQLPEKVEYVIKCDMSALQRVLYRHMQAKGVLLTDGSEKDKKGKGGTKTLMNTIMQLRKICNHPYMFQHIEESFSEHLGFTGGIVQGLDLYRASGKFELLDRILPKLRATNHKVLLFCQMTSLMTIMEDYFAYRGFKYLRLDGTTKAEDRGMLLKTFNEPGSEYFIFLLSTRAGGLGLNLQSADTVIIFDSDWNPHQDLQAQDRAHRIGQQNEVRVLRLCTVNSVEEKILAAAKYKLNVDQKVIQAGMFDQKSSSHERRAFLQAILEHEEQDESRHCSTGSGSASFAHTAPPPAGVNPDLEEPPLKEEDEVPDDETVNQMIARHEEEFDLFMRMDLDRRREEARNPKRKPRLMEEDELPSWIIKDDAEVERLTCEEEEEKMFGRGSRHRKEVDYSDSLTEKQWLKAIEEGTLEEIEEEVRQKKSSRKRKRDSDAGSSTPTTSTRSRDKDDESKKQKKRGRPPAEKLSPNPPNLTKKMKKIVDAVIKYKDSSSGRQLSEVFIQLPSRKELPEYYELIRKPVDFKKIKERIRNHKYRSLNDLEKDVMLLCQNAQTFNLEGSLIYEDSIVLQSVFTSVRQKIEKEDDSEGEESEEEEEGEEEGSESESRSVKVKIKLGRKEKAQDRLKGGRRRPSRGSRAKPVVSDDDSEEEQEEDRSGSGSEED
Procedure, shortened: (§1)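 Read-out: mean per-cell nuclear BRM or BRG1 immunofluorescence by automated imaging. SW1573, 20 h compound, 4% formaldehyde fix, Triton permeabilization, overnight 4 °C primary antibody, fluorescent secondary plus Hoechst. Normalized to reference degrader; floating-max curve fit gives Dmax.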

BRM = BRM (Homo sapiens, UniProt P51531); assay: Immunofluorescence assay for BRM degradation in SW1573 cells; format: cell-based; design: treated overnight at 4° C. with either BRM primary antibody (Cell signaling Cat #11966) or BRG primary antibody; endogenous in cells; host or cells: SW1573; conditions: 20 hours incubation; for DC50: immunofluorescence mean nuclear signal, read-out: BRM IF Degradation IC50; for BRM IF Degradation Sinf (%): normalized to a known degrader control
Sequence of BRM (P51531 whole entry): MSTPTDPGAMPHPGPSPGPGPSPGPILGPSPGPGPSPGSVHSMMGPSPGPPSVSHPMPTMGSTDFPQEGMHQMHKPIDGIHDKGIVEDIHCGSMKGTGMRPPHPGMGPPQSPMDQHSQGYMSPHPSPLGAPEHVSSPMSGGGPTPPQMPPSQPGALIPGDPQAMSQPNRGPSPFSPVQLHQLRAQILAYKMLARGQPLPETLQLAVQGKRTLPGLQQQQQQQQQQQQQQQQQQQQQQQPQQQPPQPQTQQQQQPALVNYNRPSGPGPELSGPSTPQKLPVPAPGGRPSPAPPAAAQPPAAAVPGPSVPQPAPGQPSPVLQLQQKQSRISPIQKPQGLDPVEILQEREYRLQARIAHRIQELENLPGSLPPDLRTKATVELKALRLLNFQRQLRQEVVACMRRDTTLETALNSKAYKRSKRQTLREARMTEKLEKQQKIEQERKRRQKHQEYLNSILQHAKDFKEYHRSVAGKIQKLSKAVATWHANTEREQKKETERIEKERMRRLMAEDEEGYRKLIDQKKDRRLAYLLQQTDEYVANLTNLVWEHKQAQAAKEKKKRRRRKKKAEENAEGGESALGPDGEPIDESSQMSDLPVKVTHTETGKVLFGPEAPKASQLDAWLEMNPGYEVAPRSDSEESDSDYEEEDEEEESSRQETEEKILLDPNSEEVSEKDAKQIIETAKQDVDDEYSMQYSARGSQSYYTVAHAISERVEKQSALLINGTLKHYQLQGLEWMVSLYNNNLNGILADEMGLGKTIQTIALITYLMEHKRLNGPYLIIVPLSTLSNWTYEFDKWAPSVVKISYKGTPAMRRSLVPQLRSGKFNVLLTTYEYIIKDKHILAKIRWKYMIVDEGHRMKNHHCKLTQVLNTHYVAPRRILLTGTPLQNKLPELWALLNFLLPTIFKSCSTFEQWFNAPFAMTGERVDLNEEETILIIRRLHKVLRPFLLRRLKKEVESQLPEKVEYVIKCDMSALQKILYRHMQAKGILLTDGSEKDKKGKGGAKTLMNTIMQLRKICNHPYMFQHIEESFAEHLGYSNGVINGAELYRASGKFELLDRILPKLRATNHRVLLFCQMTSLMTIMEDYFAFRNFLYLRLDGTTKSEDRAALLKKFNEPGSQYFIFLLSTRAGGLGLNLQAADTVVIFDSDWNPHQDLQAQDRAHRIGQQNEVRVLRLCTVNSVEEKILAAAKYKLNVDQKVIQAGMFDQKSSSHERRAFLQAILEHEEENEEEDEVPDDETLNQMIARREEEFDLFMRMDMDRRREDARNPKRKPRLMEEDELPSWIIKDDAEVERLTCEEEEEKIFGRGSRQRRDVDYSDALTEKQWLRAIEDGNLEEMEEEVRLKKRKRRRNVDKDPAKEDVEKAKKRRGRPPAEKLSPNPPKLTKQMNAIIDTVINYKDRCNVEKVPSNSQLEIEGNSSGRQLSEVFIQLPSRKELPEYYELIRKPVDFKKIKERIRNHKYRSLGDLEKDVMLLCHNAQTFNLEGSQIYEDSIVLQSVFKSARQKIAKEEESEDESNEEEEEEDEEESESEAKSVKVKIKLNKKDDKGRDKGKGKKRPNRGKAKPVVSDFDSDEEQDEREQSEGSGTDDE
Procedure, shortened: as §1

Structure (SMILES) | DC50 (BRG1) [µM] | Dmax (BRG1) [%] | DC50 (BRM) [µM] | BRM IF Degradation Sinf (%) (BRM)
Nc1nnc(-c2ccccc2O)cc1N1CC2CCC(C1)N2c1ccnc(C#CCN2CC3CC3(O)C2)c1 (stereo not drawn) [Compound 105, 3-(3-(4-(3-(3-amino-6-(2-hydroxyphenyl)pyridazin-4-yl)-3,8-diazabicyclo[3.2.1]octan-8-yl)pyridin-2-yl)prop-2-yn-1-yl)-3-azabicyclo[3.1.0]hexan-1-ol] | 0.01 to 0.1 | 0 to 30 | 0.01 to 0.1 | E (E indicates −30%-−70%)
Nc1nnc(-c2ccccc2O)cc1N1CC2CCC(C1)N2c1ccnc(C#CCN2CCCC23CCC3)c1 [Compound 106, 2-[6-amino-5-[8-[2-[3-(5-azaspiro[3.4]octan-5-yl)prop-1-ynyl]-4-pyridyl]-3,8-diazabicyclo[3.2.1]octan-3-yl]pyridazin-3-yl]phenol] | < 0.01 | 30 to 70 | < 0.01 | E (E indicates −30%-−70%)
Nc1nnc(-c2ccccc2O)cc1N1CC2CCC(C1)N2c1ccnc(C#CCN2CCn3cccc3C2)c1 [Compound 107, 2-[6-amino-5-[8-[2-[3-(3,4-dihydro-1H-pyrrolo[l,2-a]pyrazin-2-yl)prop-1-ynyl]-4-pyridyl]-3,8-diazabicyclo[3.2.1]octan-3-yl]pyridazin-3-yl]phenol] | 0.01 to 0.1 | 0 to 30 | 0.01 to 0.1 | E (E indicates −30%-−70%)
CN1C[C@@H]2CN(CC#Cc3cc(N4C5CCC4CN(c4cc(-c6ccccc6O)nnc4N)C5)ccn3)C[C@@H]2C1 [Compound 108, 2-[5-[8-[2-[3-[(3aS,6aR)-2-methyl-1,3,3a,4,6,6a-hexahydropyrrolo[3,4-c]pyrrol-5-yl]prop-1-ynyl]-4-pyridyl]-3,8-diazabicyclo[3.2.1]octan-3-yl]-6-amino-pyridazin-3-yl]phenol] | > 0.1 | – | > 0.1 | E (E indicates −30%-−70%)
Nc1nnc(-c2ccccc2O)cc1N1CC2CCC(C1)N2c1ccnc(C#CCN2C[C@@H]3C[C@@H](O)[C@H]2C3)c1 [Compound 109, (1R,4S,6R)-2-[3-[4-[3-[3-amino-6-(2-hydroxyphenyl)pyridazin-4-yl]-3,8-diazabicyclo[3.2.1]octan-8-yl]-2-pyridyl]prop-2-ynyl]-2-azabicyclo[2.2.1]heptan-6-ol] | < 0.01 | 30 to 70 | < 0.01 | E (E indicates −30%-−70%)
Nc1nnc(-c2ccccc2O)cc1N1CC2CCC(C1)N2c1ccnc(C#CCN2CCCOCC23CC3)c1 [Compound 110, 2-[6-amino-5-[8-[2-[3-(8-oxa-4-azaspiro[2.6]nonan-4-yl)prop-1-ynyl]-4-pyridyl]-3,8-diazabicyclo[3.2.1]octan-3-yl]pyridazin-3-yl]phenol] | > 0.1 | – | < 0.01 | E (E indicates −30%-−70%)
Nc1nnc(-c2ccccc2O)cc1N1CC2CCC(C1)N2c1ccnc(C#CCN2C3CCCC2COC3)c1 [Compound 111, 2-[6-amino-5-[8-[2-[3-(3-oxa-9-azabicyclo[3.3.1]nonan-9-yl)prop-1-ynyl]-4-pyridyl]-3,8-diazabicyclo[3.2.1]octan-3-yl]pyridazin-3-yl]phenol] | < 0.01 | 0 to 30 | < 0.01 | E (E indicates −30%-−70%)
Nc1nnc(-c2ccccc2O)cc1N1CC2CCC(C1)N2c1ccnc(C#CCN2CCOC(F)(F)C2)c1 [Compound 112, 2-[6-amino-5-[8-[2-[3-(2,2-difluoromorpholin-4-yl)prop-1-ynyl]-4-pyridyl]-3,8-diazabicyclo[3.2.1]octan-3-yl]pyridazin-3-yl]phenol] | 0.01 to 0.1 | 0 to 30 | < 0.01 | E (E indicates −30%-−70%)
Nc1nnc(-c2ccccc2O)cc1N1CC2CCC(C1)N2c1ccnc(C#CCN2C[C@H]3CCO[C@H]3C2)c1 [Compound 113, 2-[5-[8-[2-[3-[(3aR,6aR)-2,3,3a,4,6,6a-hexahydrofuro[2,3-c]pyrrol-5-yl]prop-1-ynyl]-4-pyridyl]-3,8-diazabicyclo[3.2.1]octan-3-yl]-6-amino-pyridazin-3-yl]phenol] | < 0.01 | 0 to 30 | 0.01 to 0.1 | E (E indicates −30%-−70%)
Nc1nnc(-c2ccccc2O)cc1N1CC2CCC(C1)N2c1ccnc(C#CCN2CCOC(CF)C2)c1 (stereo not drawn) [Compound 114, 2-[6-amino-5-[8-[2-[3-[2-(fluoromethyl)morpholin-4-yl]prop-1-ynyl]-4-pyridyl]-3,8-diazabicyclo[3.2.1]octan-3-yl]pyridazin-3-yl]phenol] | > 0.1 | – | 0.01 to 0.1 | E (E indicates −30%-−70%)
Nc1nnc(-c2ccccc2O)cc1N1CC2CCC(C1)N2c1ccnc(C#CCN2C[C@H]3CC[C@@H]2C3)c1 [Compound 115, 2-[6-amino-5-[8-[2-[3-[(1R,4S)-2-azabicyclo[2.2.1]heptan-2-yl]prop-1-ynyl]-4-pyridyl]-3,8-diazabicyclo[3.2.1]octan-3-yl]pyridazin-3-yl]phenol] | < 0.01 | 30 to 70 | < 0.01 | E (E indicates −30%-−70%)
Nc1nnc(-c2ccccc2O)cc1N1CC2CCC(C1)N2c1ccnc(C#CCN2CC3CC2(CO)C3)c1 [Compound 116, 2-[6-amino-5-[8-[2-[3-[1-(hydroxymethyl)-2-azabicyclo[2.1.1]hexan-2-yl]prop-1-ynyl]-4-pyridyl]-3,8-diazabicyclo[3.2.1]octan-3-yl]pyridazin-3-yl]phenol] | < 0.01 | 0 to 30 | 0.01 to 0.1 | E (E indicates −30%-−70%)
Nc1nnc(-c2ccccc2O)cc1N1CC2CCC(C1)N2c1ccnc(C#CCN2CC[C@@]3(O)C[C@H]3C2)c1 [Compound 117, (1S,6S)-3-[3-[4-[3-[3-amino-6-(2-hydroxyphenyl)pyridazin-4-yl]-3,8-diazabicyclo[3.2.1]octan-8-yl]-2-pyridyl]prop-2-ynyl]-3-azabicyclo[4.1.0]heptan-6-ol] | 0.01 to 0.1 | 0 to 30 | 0.01 to 0.1 | E (E indicates −30%-−70%)
Nc1nnc(-c2ccccc2O)cc1N1CC2CCC(C1)N2c1ccnc(C#CCN2C[C@@H]3[C@@H](CO)[C@@H]3C2)c1 [Compound 118, 2-[6-amino-5-[8-[2-[3-[(1S,5R)-6-(hydroxymethyl)-3-azabicyclo[3.1.0]hexan-3-yl]prop-1-ynyl]-4-pyridyl]-3,8-diazabicyclo[3.2.1]octan-3-yl]pyridazin-3-yl]phenol] | < 0.01 | 30 to 70 | 0.01 to 0.1 | E (E indicates −30%-−70%)
CC1(C)CN(CC#Cc2cc(N3C4CCC3CN(c3cc(-c5ccccc5O)nnc3N)C4)ccn2)CCO1 [Compound 119, 2-[6-amino-5-[8-[2-[3-(2,2-dimethylmorpholin-4-yl)prop-1-ynyl]-4-pyridyl]-3,8-diazabicyclo[3.2.1]octan-3-yl]pyridazin-3-yl]phenol] | > 0.1 | – | > 0.1 | E (E indicates −30%-−70%)
N#CC1CCCN(CC#Cc2cc(N3C4CCC3CN(c3cc(-c5ccccc5O)nnc3N)C4)ccn2)C1 (stereo not drawn) [Compound 120, 1-[3-[4-[3-[3-amino-6-(2-hydroxyphenyl)pyridazin-4-yl]-3,8-diazabicyclo[3.2.1]octan-8-yl]-2-pyridyl]prop-2-ynyl]piperidine-3-carbonitrile] | 0.01 to 0.1 | 30 to 70 | 0.01 to 0.1 | E (E indicates −30%-−70%)
Nc1nnc(-c2ccccc2O)cc1N1CC2CCC(C1)N2c1ccnc(C#CCN2C3CCC2(CO)CC3)c1 [Compound 121, 2-[6-amino-5-[8-[2-[3-[1-(hydroxymethyl)-7-azabicyclo[2.2.1]heptan-7-yl]prop-1-ynyl]-4-pyridyl]-3,8-diazabicyclo[3.2.1]octan-3-yl]pyridazin-3-yl]phenol] | > 0.1 | 30 to 70 | < 0.01 | E (E indicates −30%-−70%)
CNC(=O)[C@H]1CCN(CC#Cc2cc(N3C4CCC3CN(c3cc(-c5ccccc5O)nnc3N)C4)ccn2)C1 [Compound 122, (3S)-1-[3-[4-[3-[3-amino-6-(2-hydroxyphenyl)pyridazin-4-yl]-3,8-diazabicyclo[3.2.1]octan-8-yl]-2-pyridyl]prop-2-ynyl]-N-methyl-pyrrolidine-3-carboxamide] | 0.01 to 0.1 | 30 to 70 | 0.01 to 0.1 | F (F indicates −71%-−120%)
Nc1nnc(-c2ccccc2O)cc1N1CC2CCC(C1)N2c1ccnc(C#CCN2C[C@@H]3C[C@H]2[C@H]2C[C@@H]32)c1 [Compound 123, 2-[6-amino-5-[8-[2-[3-[(1R,2S,4S,5S)-6-azatricyclo[3.2.1.02,4]octan-6-yl]prop-1-ynyl]-4-pyridyl]-3,8-diazabicyclo[3.2.1]octan-3-yl]pyridazin-3-yl]phenol] | < 0.01 | 30 to 70 | < 0.01 | E (E indicates −30%-−70%)
Nc1nnc(-c2ccccc2O)cc1N1CC2CCC(C1)N2c1ccnc(C#CCN2CCOC3(CC3)C2)c1 [Compound 124, 2-[6-amino-5-[8-[2-[3-(4-oxa-7-azaspiro[2.5]octan-7-yl)prop-1-ynyl]-4-pyridyl]-3,8-diazabicyclo[3.2.1]octan-3-yl]pyridazin-3-yl]phenol] | > 0.1 | – | < 0.01 | E (E indicates −30%-−70%)
